Measurements published in ChEMBL document CHEMBL4342511, “Discovery and Optimization of wt-RET/KDR-Selective Inhibitors of RETV804M Kinase” (ACS Med Chem Lett, 2020).
≈ marks a conversion by molar mass, not a printed value.

Tests used:
[1] = species: Homo sapiens; assay: Selectivity index, ratio of IC50 for KDR (unknown origin) expressed in BaF3 cells to IC50 for RET V804M mutant (unknown origin) expressed […] cells; assay type: cell-based
[2] = target: Proto-oncogene tyrosine-protein kinase receptor Ret (Homo sapiens, UniProt P07949, V804M)
[3] = species: Homo sapiens; assay: Selectivity index, ratio of IC50 for RET (unknown origin) expressed in BaF3 cells to IC50 for RET V804M mutant (unknown origin) expressed […] cells; assay type: cell-based
[4] = species: Homo sapiens; assay: Selectivity index, ratio of IC50 for GST-tagged human RET expressed in baculovirus to IC50 for recombinant N-Terminal GST-tagged human RET V804M mutant (658 to end residues)
[5] = species: Homo sapiens; assay: Selectivity index, ratio of IC50 for N-terminal His6-tagged recombinant human KDR (790 to end residue) expressed in baculovirus in Sf21 insect cells to IC50 for recombinant N-Terminal GST-tagged human RET V804M mutant (658 to end residues)
[6] = Efflux ratio of apparent permeability in human Caco2 cells; assay type: ADME, cell-based; conditions: Caco-2
[7] = Apparent permeability in human Caco2 cells; assay type: ADME, cell-based; conditions: Caco-2
[8] = Metabolic stability in mouse liver microsomes assessed as intrinsic clearance; assay type: ADME, Microsome; conditions: read-out: CLH
[9] = Kinetic solubility of compound; assay type: physicochemical; conditions: read-out: Kinetic_solubility

Chain of Proto-oncogene tyrosine-protein kinase receptor Ret (P07949 29-1114 V804M limits assumed): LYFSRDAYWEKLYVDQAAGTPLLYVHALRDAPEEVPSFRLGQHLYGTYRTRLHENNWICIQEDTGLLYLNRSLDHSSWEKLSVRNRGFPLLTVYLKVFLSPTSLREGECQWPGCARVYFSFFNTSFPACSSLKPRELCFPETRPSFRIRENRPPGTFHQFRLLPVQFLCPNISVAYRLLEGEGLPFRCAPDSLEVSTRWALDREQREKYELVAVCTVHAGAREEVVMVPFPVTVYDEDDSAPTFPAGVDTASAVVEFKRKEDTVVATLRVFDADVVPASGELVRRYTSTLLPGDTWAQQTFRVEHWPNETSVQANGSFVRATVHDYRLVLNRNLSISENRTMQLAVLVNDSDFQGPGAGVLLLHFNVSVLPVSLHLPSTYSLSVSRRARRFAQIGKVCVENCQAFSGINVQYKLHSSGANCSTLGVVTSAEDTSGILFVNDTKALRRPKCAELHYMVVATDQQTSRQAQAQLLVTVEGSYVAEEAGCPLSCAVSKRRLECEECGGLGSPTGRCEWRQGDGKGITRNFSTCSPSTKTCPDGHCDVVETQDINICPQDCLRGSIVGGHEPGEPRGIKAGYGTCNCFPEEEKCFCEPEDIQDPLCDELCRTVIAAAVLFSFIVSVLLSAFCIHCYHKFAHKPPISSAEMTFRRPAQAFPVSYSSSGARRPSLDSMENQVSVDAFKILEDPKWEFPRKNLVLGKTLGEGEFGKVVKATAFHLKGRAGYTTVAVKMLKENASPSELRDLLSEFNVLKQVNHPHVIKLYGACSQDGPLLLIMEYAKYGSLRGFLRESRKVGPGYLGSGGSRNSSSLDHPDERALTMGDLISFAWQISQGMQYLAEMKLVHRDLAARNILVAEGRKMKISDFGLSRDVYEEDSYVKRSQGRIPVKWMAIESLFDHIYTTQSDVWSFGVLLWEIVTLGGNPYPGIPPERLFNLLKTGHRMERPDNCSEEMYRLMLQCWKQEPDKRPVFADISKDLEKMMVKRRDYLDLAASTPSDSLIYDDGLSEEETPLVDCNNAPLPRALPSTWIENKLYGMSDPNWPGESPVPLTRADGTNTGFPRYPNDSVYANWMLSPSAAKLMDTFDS

With c1cc2c(cc1-c1cnn3ccc(NCC4CCNCC4)nc13)OCO2 the Ratio IC50 [1] was 2.6, the IC50 [2] was 200 nM and the Ratio IC50 [3] was 0.85. For the same compound, the Ratio IC50 [4] was 1.2 and the Ratio IC50 [5] was 64.

NC(=O)c1ccc(-c2cnn3ccc(NCc4cccnc4)nc23)cc1 showed a Ratio IC50 [1] of 1.9, an IC50 [2] of 51 nM and a Ratio IC50 [3] of 0.85. For the same compound, the Ratio IC50 [4] was 13 and the Ratio IC50 [5] was 19.

For c1ccc(CNc2ccn3ncc(-c4ccc5c(c4)OCO5)c3n2)nc1, the Ratio IC50 [1] was 7.6, the IC50 [2] was 39 nM and the Ratio IC50 [3] was 3.1. For the same compound, the Ratio IC50 [4] was 14 and the Ratio IC50 [5] was 100.

In the case of c1cc2c(cc1-c1cnn3ccc(NCCN4CCCCC4)nc13)OCO2, the IC50 [2] is reported as 660 nM, the Ratio IC50 [4] is reported as 5.3 and the Ratio IC50 [5] is reported as 34.

In the case of NC(=O)c1ccc(-c2cnn3ccc(NCc4ccccn4)nc23)cc1, the Ratio IC50 [1] is reported as 2, the IC50 [2] is reported as 44 nM and the Ratio IC50 [3] is reported as 0.9. For the same compound, the Ratio IC50 [4] was 19 and the Ratio IC50 [5] was 22.

Compound CS(=O)(=O)Nc1ccc(-c2cnn3ccc(NCc4ccncc4)nc23)cc1 has an IC50 [2] of 1500 nM, a Ratio IC50 [4] of 0.28 and a Ratio IC50 [5] of 29.

Work on CN(C)CCCNc1ccn2ncc(-c3ccc4c(c3)OCO4)c2n1 yielded a Ratio IC50 [1] of 76, an IC50 [2] of 19 nM and an efflux ratio [6] of 1.4. For the same compound, the Ratio IC50 [3] was 32, the Ratio IC50 [4] was 16 and the Ratio IC50 [5] was 410. It also gave a Papp [7] of 22.8 ×10⁻⁶ cm/s, a microsomal CLint [8] of 62 µL/min/mg and a solubility kinetic [9] greater than 100 µM.

Work on OCCNc1ccn2ncc(-c3ccc4c(c3)OCO4)c2n1 yielded a Ratio IC50 [1] of 1.5, an IC50 [2] of 130 nM and a Ratio IC50 [3] of 1.5. It also gave a Ratio IC50 [4] of 15 and a Ratio IC50 [5] of 19.

Compound CN(C)CCNc1ccn2ncc(-c3ccc(C(N)=O)cc3)c2n1 has a Ratio IC50 [1] of 0.83, an IC50 [2] of 350 nM and a Ratio IC50 [3] of 0.3. It also gave a Ratio IC50 [4] of 4.7 and a Ratio IC50 [5] of 54.

NS(=O)(=O)c1ccc(-c2cnn3ccc(NCc4ccncc4)nc23)cc1 showed a Ratio IC50 [1] of 1, an IC50 [2] of 360 nM and a Ratio IC50 [3] of 1. It also gave a Ratio IC50 [4] of 1.3 and a Ratio IC50 [5] of 220.

CC(=O)Nc1ccc(-c2cnn3ccc(NCc4ccncc4)nc23)cc1 showed an IC50 [2] of 6700 nM, a Ratio IC50 [4] of 2.6 and a Ratio IC50 [5] of 4.4.

In the case of c1cc2c(cc1-c1cnn3ccc(NC4CCNCC4)nc13)OCO2, the IC50 [2] is reported as 880 nM, the Ratio IC50 [4] is reported as 1.2 and the Ratio IC50 [5] is reported as 17.

For c1cc(CNc2ccn3ncc(-c4ccc5cn[nH]c5c4)c3n2)ccn1, the Ratio IC50 [1] was 1.9, the IC50 [2] was 300 nM and the Ratio IC50 [3] was 1.9. It also gave a Ratio IC50 [4] of 18 and a Ratio IC50 [5] of 83.

CN(C)CCNc1ccn2ncc(-c3ccc4c(c3)OCO4)c2n1 gave a Ratio IC50 [1] of 13, an IC50 [2] of 91 nM and a Ratio IC50 [3] of 9.8. For the same compound, the Ratio IC50 [4] was 21 and the Ratio IC50 [5] was 540.

Work on O=C(O)c1ccc(-c2cnn3ccc(NCc4ccncc4)nc23)cc1 yielded an IC50 [2] of 560 nM, a Ratio IC50 [4] of 1.2 and a Ratio IC50 [5] of 1.8.

With NC(=O)c1ccc(-c2cnn3ccc(NCc4ccncc4)nc23)cc1 the Ratio IC50 [1] was 2.3, the IC50 [2] was 20 nM and the Ratio IC50 [3] was 0.89. The Ratio IC50 [4] was 3.7 and the Ratio IC50 [5] was 110.

c1ccc(CNc2ccn3ncc(-c4ccc5c(c4)OCO5)c3n2)cc1 showed an IC50 [2] of 29000 nM, a Ratio IC50 [4] of 0.16 and a Ratio IC50 [5] of 2.3.

In the case of c1cc(CNc2ccn3ncc(-c4ccc5c(c4)OCO5)c3n2)ccn1, the Ratio IC50 [1] is reported as 6.2, the IC50 [2] is reported as 290 nM and the Ratio IC50 [3] is reported as 2.2. For the same compound, the Ratio IC50 [4] was 0.64, the Ratio IC50 [5] was 27 and the solubility kinetic [9] was 30 µM (≈ 10.4 µg/mL).

With CN(C)C(=O)c1ccc(-c2cnn3ccc(NCc4ccncc4)nc23)cc1 the IC50 [2] was 7600 nM, the Ratio IC50 [4] was 1.8 and the Ratio IC50 [5] was 3.9.

Work on NC(=O)c1cccc(-c2cnn3ccc(NCc4ccncc4)nc23)c1 yielded an IC50 [2] of 4300 nM and a Ratio IC50 [5] of 8.

Compound c1cc(Nc2ccn3ncc(-c4ccc5c(c4)OCO5)c3n2)ccn1 has an IC50 [2] of 63000 nM, a Ratio IC50 [4] of 2.1 and a Ratio IC50 [5] of 2.1.

In the case of CC(=O)Nc1cccc(-c2cnn3ccc(NCc4ccncc4)nc23)c1, the IC50 [2] is reported as 1600 nM, the Ratio IC50 [4] is reported as 4 and the Ratio IC50 [5] is reported as 22.

c1ccc(-c2cnn3ccc(NCc4ccncc4)nc23)cc1 gave an IC50 [2] of 1140 nM, a Ratio IC50 [4] of 2.4 and a Ratio IC50 [5] of 0.96.
